The text below walks through data of ChEMBL document CHEMBL3046695, “Structure-antifeedant activity relationship of clerodane diterpenoids. Comparative study with withanolides and azadirachtin” (2000).

Usually inhibition stands for the relative decrease from the control value, in per cent.

This experiment deals with Tenebrio molitor. The experiment is described as follows: Antifeedant activity against third-instar larvae Tenebrio molitor in compound treated carrot slices assessed as feeding inhibition at 100 ppm. In kind it is functional. The settings on record: in Daucus carota.
Turning to `CC1=C(C)C(=O)OC(C2CO[C@@]3(O)C[C@H]4[C@@H](C[C@@H](O)[C@@]5(O)CC=CC(=O)[C@]45C)[C@@H]4CC[C@]2(O)C43)C1` (stereo not given in full), the inhibition at 100 ppm amounted to 31.6%.

For `C[C@H](c1ccc2c(c1)CC[C@H]1[C@H]2C[C@@H]2O[C@@]23CC=CC(=O)[C@]13C)[C@@H]1C[C@@]2(C)O[C@@]2(C)[C@@H](O)O1`, the inhibition at 100 ppm amounted to 29.9%.

In the case of `CC(=O)O[C@H](C[C@@]1(C)[C@H](C)CC[C@]2(C)[C@H]1CCC[C@@]21CO1)/C(=C/CO)CO`, the inhibition at 100 ppm is 51.9%.

`C=C1CCC[C@H]2[C@@](C)(C/C=C(/CO)CCO)[C@H](C)CC[C@@]12C`: the inhibition at 100 ppm stood at 57.3%.

On to `CC(=O)OC[C@@]12[C@@H](OC(C)=O)C[C@@H](C)[C@]3(C[C@H](c4ccoc4)OC3=O)[C@H]1CCCC2(O)O`, for which the inhibition at 100 ppm worked out at 45%.

With `CC(=O)OC[C@@]12[C@@H](OC(C)=O)C[C@@H](C)[C@]3(C[C@H](c4ccoc4)OC3=O)[C@H]1CCC[C@@H]2C=O`, the inhibition at 100 ppm amounted to 41%.

For `COC1C=C([C@H]2C[C@@]3(C(=O)O2)[C@H](C)C[C@H](OC(C)=O)[C@]2(COC(C)=O)[C@@H]3CCC[C@]23CO3)C(OC)O1` (stereo not given in full), the inhibition at 100 ppm is 47.3%.

Turning to `CC(=O)OC[C@@]12[C@@H](OC(C)=O)C[C@@H](C)[C@]3(C[C@H](c4ccoc4)OC3=O)[C@H]1CC[C@H](OC(C)=O)[C@]21CO1`, the inhibition at 100 ppm was 30.6%.

For `CC1=CC2C[C@@H]3[C@@]1(CC[C@H](C)[C@@]31C[C@@H](c3ccoc3)OC1=O)C(=O)O2`, the inhibition at 100 ppm is 62.7%.

With `C[C@H]1CC[C@@]23C(=O)OC(C[C@H]2[C@]12C[C@@H](c1ccoc1)OC2=O)[C@H]1O[C@]13C`, the inhibition at 100 ppm is 57.9%.

Turning to `C[C@]12C[C@H](c3ccoc3)OC(=O)[C@H]1CC[C@@]13COC(=O)[C@H]1C=CC[C@@H]23`, the inhibition at 100 ppm was found to be 47.3%.

In the case of `C[C@]12C[C@H](C3CCOC3)OC(=O)[C@@H]1CC[C@@]13COC(=O)[C@H]1CCC[C@@H]23` (stereo not given in full), the inhibition at 100 ppm was 49.4%.

Take `C[C@]12C[C@H](c3ccoc3)OC[C@@H]1CC[C@@]13COC(=O)[C@H]1CCC[C@@H]23`: the inhibition at 100 ppm was 46%.

With `C[C@]12C[C@H](c3ccoc3)OC(=O)[C@@H]1[C@H](O)C[C@@]13COC(=O)C1=CCC[C@H]32`, the inhibition at 100 ppm amounted to 26.6%.

Take `C[C@]12C[C@H](c3ccoc3)OC(=O)[C@@H]1CC[C@@]13COC(=O)C1=CCC[C@H]32`: the inhibition at 100 ppm came to 22.6%.

As to `C[C@@H]1CC[C@@]2(CO)C(CO)=CCC[C@H]2[C@@]1(C)CCc1ccoc1`, the inhibition at 100 ppm stood at 48.7%.

Turning to `CC(=O)OC[C@@]12[C@@H](OC(C)=O)C[C@@H](C)[C@](C)(CC(=O)c3ccoc3)[C@@H]1CCC[C@]21CO1`, the inhibition at 100 ppm is 58%.

As for `CC(=O)OC[C@@]12[C@@H](OC(C)=O)C[C@@H](C)[C@](C)(C[C@H](OC(C)=O)c3ccoc3)[C@@H]1CCC[C@]21CO1`, the inhibition at 100 ppm is 31.4%.

In the case of `C[C@@H]1[C@H](O)C[C@@]23COC(=O)[C@H]2CC[C@H](O)[C@H]3[C@@]1(C)CCC1CCOC1` (stereo not given in full), the inhibition at 100 ppm was determined as 48.4%.

With `C[C@@H]1CC[C@@]23COC(=O)C2=CCC[C@H]3[C@@]1(C)CCC1COC(=O)C1` (stereo not given in full), the inhibition at 100 ppm was 62.6%.

As for `C[C@@H]1[C@H](O)C[C@@]23COC(=O)C2=CC[C@H](O)[C@H]3[C@@]1(C)CCc1ccoc1`, the inhibition at 100 ppm amounted to 31.3%.

On to `C[C@@H]1CC[C@@]23COC(=O)C2=CCC[C@H]3[C@@]1(C)CCc1ccoc1`, for which the inhibition at 100 ppm amounted to 31%.

For the molecule `C/C=C(\C)C(=O)O[C@H]1C[C@@H](OC(C)=O)[C@@]2(C(=O)OC)CO[C@H]3[C@@H](O)[C@@](C)([C@]45O[C@@]4(C)[C@@H]4C[C@H]5O[C@@H]5OC=C[C@@]54O)[C@H]4[C@]1(CO[C@]4(O)C(=O)OC)[C@@H]32` [AZADIRACHTIN A], the inhibition at 100 ppm is 29.6%.

As to `CC(=O)OC[C@@]12[C@@H](OC(C)=O)C[C@@H](C)[C@]3(C[C@H](c4ccoc4)OC3=O)[C@H]1CCC[C@]21CO1` [MONTANIN C], the inhibition at 100 ppm was found to be 25%.

In the case of `CC1=C(C)[C@H]([C@H]2O[C@@]3(O)C[C@H]4[C@@H](C[C@H]5O[C@]56CC=CC(=O)[C@]46C)[C@@H]4CC[C@@](O)([C@@H]2C)[C@]43C)OC1=O` [TRECHONOLIDE A], the inhibition at 100 ppm came out at 44.7%.
